Literature values, collected in patent publication US7994139B2, “Antiviral therapeutic agents” (BioCryst Pharmaceuticals, Inc., priority 2008, dated 2011).

System: HCV

Question: For NC(=O)c1ncn([C@@H]2O[C@H](CO)[C@@H](O)[C@H]2O)n1 [Ribavirin, 1-β-D-ribofuranosyl-1-1,2,4-triazole-3-carboxamide], which “serum levels of HCV-RNA” value (patients, used as sole treatment) is on record?
Answer: does not lower serum levels of HCV-RNA

Question: And the “patients in whom serum amino transferase levels are reduced to normal” value (ribavirin alone)?
Answer: 40%
